Experimental data taken from paper PMC6968685 (Journal of Enzyme Inhibition and Medicinal Chemistry, 2020).

Experiments:
[1] = test system: T. brucei brucei AnTat 1.9; test: In vitro antitrypanosomal activity, Alamar Blue assay; assay type: cell-based; conditions: for Selectivity index HepG2/Tryp.: SI = CC50 HepG2 / IC50 Trypanosoma brucei brucei; for IC50: Trypanosoma brucei, slender bloodstream trypomastigotes, AnTat 1.9 strain, read-out: Trypanosoma brucei brucei IC50 values, Trypanos Antat 1.9
Method: The effects of the tested compounds on the growth of T. brucei brucei were assessed using an Alamar Blue® assay described by Räz et al.[49] T. brucei brucei AnTat 1.9 (IMTA, Antwerpen, Belgium) was cultured in MEM with Earle’s salts, supplemented according to the protocol of Baltz et al.[50] with the following modifications: 0.5 mM mercaptoethanol (Sigma Aldrich), 1.5 mM L-cysteine (Sigma Aldrich), 0.05 mM bathocuproine sulphate (Sigma Aldrich), and 20% heat-inactivated horse serum (Gibco, France) at 37 °C and 5% CO2. Samples were incubated at an average density of 2000 parasites/well in sterile 96-wells plates (Fisher, France) with various concentrations of compounds dissolved in 0.9% NaCl. All doses were tested in duplicate. Appropriate controls treated with solvents 0.9% NaCl or DMSO or with suramin, pentamidine, eflornithine, and fexinidazole (reference drugs purchased from Sigma Aldrich and Fluorochem, UK) were added to each set of experiments. After 69 h incubation period at 37 °C, 10 µl of the viability marker Alamar Blue (Fisher) was added to each well, and the plates were incubated for 5 h. The plates were read in a PerkinElmer ENSPIRE (Germany) microplate reader using an excitation wavelength of 530 nm and an emission wavelength of 590 nm. […] IC50 values were calculated using a nonlinear regression analysis of dose-response curves performed using GraphPad Prism software (La Jolla, CA). IC50 values were calculated from three independent experiments.

[2] = test system: L. donovani (MHOM/IN/00/DEVI) promastigotes; test: In vitro antileishmanial activity, MTT assay on promastigotes; assay type: cell-based; conditions: Leishmania donovani, 72 h incubation, ≥10 = no activity noted at the highest concentration tested
Method: L. donovani (MHOM/IN/00/DEVI) used in this study was provided by the CNR Leishmania (Montpellier, France). The effects of the tested compounds on the growth of L. donovani (MHOM/IN/00/DEVI) promastigotes were assessed by MTT assay. Briefly, promastigotes in log-phase in Schneider’s medium supplemented with 20% foetal calf serum (FCS), 2 mM L-glutamine and antibiotics (100 U/ml penicillin and 100 µg/ml streptomycin), were incubated at an average density of 10^6 parasites/ml in sterile 96-well plates with various concentrations of compounds dissolved in DMSO (final concentration less than 0.5% v/v), in duplicate. Appropriate controls treated with DMSO and amphotericin B (reference drug purchased from Sigma-Aldrich) were added to each set of experiments. After 72 h incubation period at 27 °C, parasite metabolic activity was determined. Each well was microscopically examined for precipitate formation. To each well was added 20 µl of 5 mg/ml MTT [3–(4,5-dimethylthiazol-2-yl)-2,5-diphenyltetrazolium bromide)] solution followed by 4 h incubation time. The enzyme reaction was stopped by addition of 100 µl of 50% isopropanol/10% sodium dodecyl sulfate. Plates were vigorously shaken (300 rpm) for 10 min, and the absorbance was measured at 570 nm in a BIO-TEK ELx808 Absorbance Microplate Reader. […] IC50 of the parasite’s growth (half maximal inhibitory concentration or IC50 values) were then calculated from the obtained experimental results using a previously described regression programme.

[3] = test system: P. falciparum CQ-sensitive strain 3D7; test: In vitro antiplasmodial activity, SYBR Green I fluorescence-based method, strain 3D7; assay type: cell-based; conditions: for IC50: Plasmodium falciparum, chloroquine-sensitive strain 3D7, 48 h incubation, read-out: P. falciparum strains IC50 values, 3D7; for Selectivity index HepG2/3D7: SI = CC50 HepG2 / IC50 P. falciparum 3D7
Method: (§1) The in vitro antiplasmodial activities were tested over concentrations ranging from […] against culture-adapted P. falciparum reference strains 3D7 and W2. […] The parasites were cultivated in RPMI medium (Sigma-Aldrich, Lyon, France) supplemented with 0.5% Albumax I (Life Technologies Corporation, Paisley, UK), hypoxanthine (Sigma-Aldrich), and gentamicin (Sigma-Aldrich) with human erythrocytes and were incubated at 37 °C in a candle jar, as described previously[43] .The P. falciparum drug susceptibility test was carried out in 96-well flat-bottom sterile plates in a final volume of 250 µl. After 48 h incubation period with the drugs, quantities of DNA in treated and control cultures of parasites in human erythrocytes were quantified using the SYBR Green I (Sigma-Aldrich) fluorescence-based method[44]^,[45]. Briefly, after incubation, plates were frozen at −20 °C until use. Plates were then thawed for 2 h at room temperature, and 100 µl of each homogenised culture was transferred to a well of a 96-well flat-bottom sterile black plate (Nunc, Inc., Rochester, NY) that contained 100 µl of the SYBR Green I lysis buffer (2xSYBR Green, 20 mM Tris base pH 7.5, 5 mM EDTA, 0.008% w/v saponin, 0.08% w/v Triton X-100). […] Plates were incubated for 1 h at room temperature and then read on a fluorescence plate reader (Tecan, Grödig, Austria) using excitation and emission wavelengths of 485 and 535 nm, respectively. IC50 values were calculated by non-linear regression analysis of data from dose-response curves, using TableCurve 2D version 5.0 software (Systat Software, San Jose, CA). IC50 values are reported as means calculated from three independent experiments.

[4] = Cytotoxicity evaluation, MTT; assay type: cell-based, human; conditions: human
Method: These cells are a commonly used human hepatocarcinoma-derived cell line that has characteristics similar to those of primary hepatocytes. These cells express many hepatocyte-specific metabolic enzymes, thus enabling the cytotoxicity of tested product metabolites to be evaluated. […] Duplicate assays were performed for each sample. Each well was microscopically examined for precipitate formation before the medium was aspirated from the wells. After aspiration, 100 µl of MTT solution (0.5 mg/ml in medium without FCS) were then added to each well. […] The MTT solution was removed, and DMSO (100 µl) was added to dissolve the resulting blue formazan crystals. Plates were shaken vigorously (300 rpm) for 5 min. The absorbance was measured at 570 nm with 630 nm as reference wavelength in a BIO-TEK ELx808 Absorbance Microplate Reader. DMSO was used as blank and doxorubicin (Sigma Aldrich) as positive control. Cell viability was calculated as percentage of control (cells incubated without compound). The CC50 was determined from the dose-response curve using the TableCurve 2D version 5.0 software (Systat Software, San Jose, CA)

[5] = test system: P. falciparum CQ-resistant strain W2; test: In vitro antiplasmodial activity, SYBR Green I fluorescence-based method, strain W2; assay type: cell-based; conditions: for IC50: Plasmodium falciparum, chloroquine-resistant strain W2, 48 h incubation, read-out: P. falciparum strains IC50 values, W2; for Selectivity index HepG2/W2: SI = CC50 HepG2 / IC50 P. falciparum W2
Method: as §1

Compound	Selectivity index HepG2/Tryp. [1]	IC50 [1]	IC50 [2]	IC50 [3]	Selectivity index HepG2/3D7 [3]	CC50 at 72 h [4]	IC50 [5]	Selectivity index HepG2/W2 [5]
COc1ccc2c(-c3ccc(CNCCCN(C)C)cc3)cc(-c3ccc(CNCCCN(C)C)cc3)nc2c1 [Compound 1n, 7-Methoxy-2,4-bis{4-[(3-dimethylaminopropyl)aminomethyl]phenyl}quinoline]	0.40	1.2 ± 0.296 µM	≥ 10 µM	3.18 ± 0.36 µM	0.15	0.48 ± 0.1 µM	1.69 ± 0.24 µM	0.28
COc1ccc2c(-c3ccc(CNCCCN4CCN(C)CC4)cc3)nc(-c3ccc(CNCCCN4CCN(C)CC4)cc3)cc2c1 [Compound 2l]	1.50	1.34 ± 0.088 µM	≥ 10 µM	9.66 ± 1.2 µM	0.21	2.01 ± 0.2 µM	9.6 ± 0.99 µM	0.21
COc1ccc2cc(-c3ccc(CNCCCCN4CCN(C)CC4)cc3)nc(-c3ccc(CNCCCCN4CCN(C)CC4)cc3)c2c1 [Compound 2g, 7-Methoxy-1,3-bis{4-[(4–(4-methylpiperazin-1-yl)butyl)aminomethyl]phenyl}isoquinoline]	10.16	1 ± 0.261 µM	≥ 10 µM	3.27 ± 0.31 µM	3.11	10.2 ± 0.9 µM	7.61 ± 0.94 µM	1.33
COc1ccc2nc(-c3ccc(CNCCCCN(C)C)cc3)cc(-c3ccc(CNCCCCN(C)C)cc3)c2c1 [Compound 1i, 6-Methoxy-2,4-bis{4-[(4-dimethylaminobutyl)aminomethyl]phenyl}quinoline]	5.34	0.67 ± 0.091 µM	≥ 10 µM	3.09 ± 0.38 µM	1.16	3.58 ± 0.3 µM	7.92 ± 0.64 µM	0.45
COc1ccc2c(-c3ccc(CNCCCN4CCN(C)CC4)cc3)cc(-c3ccc(CNCCCN4CCN(C)CC4)cc3)nc2c1 [Compound 1p, 7-Methoxy-2,4-bis{4-[(3–(4-methylpiperazin-1-yl)propyl)aminomethyl]phenyl}quinoline]	6.37	1.01 ± 0.135 µM	≥ 10 µM	4.34 ± 0.5 µM	1.48	6.44 ± 0.6 µM	2.73 ± 0.76 µM	2.36
CN1CCN(CCCNCc2ccc(-c3cc4ccccc4c(-c4ccc(CNCCCN5CCN(C)CC5)cc4)n3)cc2)CC1 [Compound 2d, 1,3-Bis{4-[(3–(4-methylpiperazin-1-yl)propyl)aminomethyl]phenyl}isoquinoline]	11.60	1.28 ± 0.122 µM	≥ 10 µM	5.77 ± 0.67 µM	2.57	14.8 ± 1.1 µM	5.46 ± 0.44 µM	2.72
COc1ccc2nc(-c3ccc(CNCCCN4CCN(C)CC4)cc3)nc(-c3ccc(CNCCCN4CCN(C)CC4)cc3)c2c1 [Compound 3k, 6-Methoxy-2,4-bis{4-[(3–(4-methylpiperazin-1-yl)propyl)aminomethyl]phenyl}quinazoline]	24.06	0.94 ± 0.089 µM	≥ 10 µM	3.12 ± 0.23 µM	7.25	22.6 ± 1.1 µM	4.84 ± 0.58 µM	4.67
COc1ccc2c(-c3ccc(CNCCCCN4CCN(C)CC4)cc3)nc(-c3ccc(CNCCCCN4CCN(C)CC4)cc3)cc2c1 [Compound 2k, 6-Methoxy-1,3-bis{4-[(4–(4-methylpiperazin-1-yl)butyl)aminomethyl]phenyl}isoquinoline]	6.54	0.99 ± 0.122 µM	≥ 10 µM	8.91 ± 0.87 µM	0.73	6.48 ± 0.6 µM	5.96 ± 0.54 µM	1.09
COc1ccc2c(-c3ccc(CNCCN4CCN(C)CC4)cc3)nc(-c3ccc(CNCCN4CCN(C)CC4)cc3)nc2c1 [Compound 3r, 7-Methoxy-2,4-bis{4-[(2–(4-methylpiperazin-1-yl)ethyl)aminomethyl]phenyl}quinazoline]	3.64	1.07 ± 0.164 µM	≥ 10 µM	4.34 ± 0.33 µM	0.90	3.9 ± 0.9 µM	4.75 ± 0.31 µM	0.82
COc1ccc2nc(-c3ccc(CNCCCCN4CCN(C)CC4)cc3)cc(-c3ccc(CNCCCCN4CCN(C)CC4)cc3)c2c1 [Compound 1k, 6-Methoxy-2,4-bis{4-[(4–(4-methylpiperazin-1-yl)butyl)aminomethyl]phenyl}quinoline]	6.28	0.98 ± 0.118 µM	≥ 10 µM	2.59 ± 0.2 µM	2.38	6.16 ± 0.4 µM	4.1 ± 0.54 µM	1.50
CN(C)CCCNCc1cccc(-c2cc(-c3cccc(CNCCCN(C)C)c3)c3ccccc3n2)c1 [Compound 1q, 2,4-Bis{3-[(3-dimethylaminopropyl)aminomethyl]phenyl}quinoline]	5.18	1.3 ± 0.101 µM	≥ 10 µM	1.44 ± 0.128 µM	4.68	6.74 ± 0.7 µM	–	–
c1ccc2c(-c3ccc(CNCCN4CCOCC4)cc3)cc(-c3ccc(CNCCN4CCOCC4)cc3)nc2c1 [Compound 1h, 2,4-Bis{4-[(2-morpholinoethyl)aminomethyl]phenyl}quinoline]	2.83	1.59 ± 0.071 µM	≥ 10 µM	1.34 ± 0.173 µM	3.36	4.5 ± 0.4 µM	–	–
